Data set [1] is described as follows: Selectivity tests: fluorescence responses to biologically relevant RSS, RNS and ROS. Particulars: for turn-on response for H2S relative to other RSS, ROS and RNS: 10 μM probe, 20 mM HEPES pH 7.4; for selectivity for H2S over abundant biologically relevant thiols: 5 mM glutathione and 5 mM cysteine (50× the amount of H2S tested); for response to most biologically relevant ROS or RNS: H2O2, tBuOOH, OCl−, NO2−, NO; for fluorescence response to other relevant RSS: thiosulfate, thiocyanate, S-nitroso glutathione, lipoic acid. The procedure: Selectivities for the SF1 and SF2 probes were measured by fluorescence responses (λex=488 nm, λem=525 nm) at 0, 15, 30, 45, and 60 min. All assays were performed in 20 mM HEPES buffered to pH 7.4. • H2S: 10 μL of a 10 mM stock solution of NaSH in degassed HEPES was added to 10 μM SF1 or SF2 in HEPES with 0.2% DMF. • Glutathione and cysteine: 2 μL of 5 mM SF1 or SF2 in DMF was added to 998 μL 5 mM glutathione or cysteine HEPES. • Lipoic acid: 10 μL of a 10 mM stock solution of lipoic acid in HEPES was added to 990 μL of 10 μM SF1 or SF2 in HEPES with 0.2% DMF. • Na2SO3: 10 μL of a 10 mM stock solution of Na2SO3 in HEPES was added to 990 μL of 10 μM SF1 or SF2 in HEPES with 0.2% DMF. • NaS2O3: 10 μL of a 10 mM stock solution of NaS2O3 in HEPES was added to 990 μL of 10 μM SF1 or SF2 in HEPES with 0.2% DMF. • KSCN: 10 μL of a 10 mM stock solution of KSCN in HEPES was added to 990 μL of 10 μM SF1 or SF2 in HEPES with 0.2% DMF. • S-nitrosoglutathione:^S4 10 μL of a 10 mM stock solution of S-nitroso glutathione in HEPES was added to 990 μL of 10 μM SF1 or SF2 in HEPES with 0.2% DMF. • NaNO2: 10 μL of a 10 mM stock solution of NaNO2 in HEPES was added to 990 μL of 10 μM SF1 or SF2 in HEPES with 0.2% DMF. • NO: 5 μL of a 10 mM stock solution of Proli-NONOATE in degassed (by bubbling N2 for ˜30 min) 10 mM NaOH in HEPES was added to 995 μL of a degassed (by bubbling N2 for ˜30 min) solution of 10 μM SF1 or SF2 in HEPES with 0.2% DMF. • H2O2: 10 μL of a 10 mM stock solution of H2O2 in HEPES was added to 990 μL of 10 μM SF1 or SF2 in HEPES with 0.2% DMF. • O2^−: 100 μL of a saturated solution of KO2 in DMSO (˜1 mM) was added to 900 μL of 10 μM SF1 or SF2 in HEPES with 0.2% DMF. • ^tBuOOH: 10 μL of a 10 mM stock solution of tBuOOH in HEPES buffered to was added to 990 μL of 10 μM SF1 or SF2 in HEPES with 0.2% DMF. • HOCl: 10 μL of a 10 mM stock solution of HOCl in HEPES was added to 990 μL of 10 μM SF1 or SF2 in HEPES with 0.2% DMF.
FIG. 5. Fluorescence responses of (a) 10 μM SF1 and (b) 10 μM SF2 to biologically relevant RSS, RNS, and ROS. Bars represent relative responses at 525 nm at 0, 15, 30, 45, and 60 min after addition of RSS, RNS, or ROS. Data shown are for 5 mM glutathione, 5 mM cysteine, and 100 μM for other RSS, RNS, and ROS. Data were acquired in 20 mM HEPES buffered at pH 7.4 with excitation at λex=488 nm. 1. H2S; 2. glutathione; 3. cysteine; 4. lipoic acid; 5. Na2SO3; 6. NaS2O3; 7. KSCN; 8. S-nitroso glutathione; 9. NaNO2; 10. NO; 11. H2O2; 12. O2^−; 13. ^tBuOOH; 14. HOCl.

Data set [2] can be described thus: Fluorescence response of probe to H2S (NaSH) in HEPES buffer. Particulars: 10 μM probe, 100 μM NaSH, after one hour of reaction. How it is done: (§1) Millipore water was used to prepare all aqueous solutions. All spectroscopic measurements were performed in 20 mM HEPES buffer, pH 7.4. Fluorescence spectra were recorded on a Photon Technology International Quanta Master 4 L-format scanning spectrofluorometer (Lawrenceville, N.J.) equipped with an LPS-220B 75-W xenon lamp and power supply, A-1010B lamp housing with an integrated igniter, switchable 814 photon-counting/analog photomultiplier detection unit, and MD5020 motor driver. Samples for emission measurements were contained in 1-cm×0.1-cm quartz (1.5 mL volume, Starna, Atascadero, Calif.). Absorption spectra were recorded using a Varian Cary 50 spectrophotometer (Walnut Creek, Calif.).
A 10 μM solution of SF1 or SF2 in 20 mM HEPES buffered to pH 7.4 was prepared from a 5 mM stock solution of SF1 or SF2 in DMF in a 1.5 mL eppendorf tube. 10 μL of 10 mM stock solution of NaSH in degassed (by bubbling N2 for ˜30 min) 20 mM HEPES buffered at pH 7.4 was added (for a final concentration of 100 μM) and the mixture was vortexed for 10 s and then transferred to a cuvette. Emission spectra (λex=488 nm, λex=498-700 nm) were collected at 10, 20, 30, 40, 50, and 60 min. The spectrum at t=0 was acquired from a 10 μM solution of SF1 or SF2 without the addition of NaSH.
FIG. 2. Fluorescence responses of (a) 10 μM SF1 and (b) 10 μM SF2 to 100 μM H2S. […]

Data set [3] is described as follows: Spectroscopic properties (absorbance, emission, quantum yield). In kind it is physicochemical. The conditions noted are these: protected form, closed lactone conformation. The procedure:
as §1
FIG. 1. Absorbance spectra of (a) 10 μM SF1 (b) 10 μM SF2, and 10 μM of rhodamine products (c) tert-butoxycarbonyl-rhodamine 110 and (d) morpholinourea-rhodamine 110.
Quantum yields were determined using fluorescein as a standard according to a published method.^S3 For each compound and fluorescein, the absorbance spectra were measured within an absorbance range of 0.01 to 0.1. The quantum yield was calculated according to the equation: Φsample=Φstandard (Gradsample/Gradstandard)[…], where Φ is the quantum yield, Φstandard=0.95 in 0.1 M NaOH, Grad is the slope of the plot of […], and η is the refractive index of the solvent.

We go through two compounds from patent US9212189B2, “Fluorescent probes for reactive sulfur species” (THE REGENTS OF THE UNIVERSITY OF CALIFORNIA, priority 2011, dated 2015).

Turning to `CC(C)(C)OC(=O)Nc1ccc2c(c1)Oc1cc(N=[N+]=[N-])ccc1C21OC(=O)c2ccccc21` (stereo not drawn) [SF1, Sulfidefluor-1], in data set [1], the “selectivity for H2S versus superoxide (O2−)” value was “good selectivity”; the “turn-on response for H2S relative to other RSS, ROS and RNS” value is “selective turn-on response”; the “selectivity for H2S over abundant biologically relevant thiols” value was “high selectivity”; the “response to most biologically relevant ROS or RNS” value is recorded as “do not respond”. In addition, in data set [1] (sulfite), the “fluorescence response to other relevant RSS” value is “negligible or small fluorescence responses”. For the same compound, in data set [2], the “turn-on response (fluorescence)” value turned out to be 7 fold. Also, the “absorption of the protected probe in the visible region” value in data set [3] is “no absorption features in the visible region”.

Regarding `[N-]=[N+]=Nc1ccc2c(c1)Oc1cc(NC(=O)N3CCOCC3)ccc1C21OC(=O)c2ccccc21` (stereo not drawn) [SF2, Sulfidefluor-2], in data set [1], the “selectivity for H2S versus superoxide (O2−)” value is recorded as “good selectivity”; the “turn-on response for H2S relative to other RSS, ROS and RNS” value is recorded as “selective turn-on response”; the “selectivity for H2S over abundant biologically relevant thiols” value is listed as “high selectivity”; the “response to most biologically relevant ROS or RNS” value is given as “do not respond”. Further, in data set [1] (greater response to H2S, lower background reactivity, better selectivity versus glutathione, sulfite, O2−), the “fluorescence properties in vitro as compared to SF1” value is on record as “more favorable fluorescence properties in vitro”. The “fluorescence response to other relevant RSS” value in data set [1] (sulfite) was “negligible or small fluorescence responses”. In addition, the “turn-on response (fluorescence)” value in data set [2] came to 9 fold. The “absorption of the protected probe in the visible region” value in data set [3] is recorded as “no absorption features in the visible region”.
